# Counter-ions that a name gives are not always drawn.
# Experiments:
# [1] = target: T1, DBH (Homo sapiens, UniProt P09172); settings: cited from earlier work; for DBH inhibition (in words): literature reports; for mode of DBH inhibition: phenethylalamine analogues
# T1 sequence (P09172 1-617): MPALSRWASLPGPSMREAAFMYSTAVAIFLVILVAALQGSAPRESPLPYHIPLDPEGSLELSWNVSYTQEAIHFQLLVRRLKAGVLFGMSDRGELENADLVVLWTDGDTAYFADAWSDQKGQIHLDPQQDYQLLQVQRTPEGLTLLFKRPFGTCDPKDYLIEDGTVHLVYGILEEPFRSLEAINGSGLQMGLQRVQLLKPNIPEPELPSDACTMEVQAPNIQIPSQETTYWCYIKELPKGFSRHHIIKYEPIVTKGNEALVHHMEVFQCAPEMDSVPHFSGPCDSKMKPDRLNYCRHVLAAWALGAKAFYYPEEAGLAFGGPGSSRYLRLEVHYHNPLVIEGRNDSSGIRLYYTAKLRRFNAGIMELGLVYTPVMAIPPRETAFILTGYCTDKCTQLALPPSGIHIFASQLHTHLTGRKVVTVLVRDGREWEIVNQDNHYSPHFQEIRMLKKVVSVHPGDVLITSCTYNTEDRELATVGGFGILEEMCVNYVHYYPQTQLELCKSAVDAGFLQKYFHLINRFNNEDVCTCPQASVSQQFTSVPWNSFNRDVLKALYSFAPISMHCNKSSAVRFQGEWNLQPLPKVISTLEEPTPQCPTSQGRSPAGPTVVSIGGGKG
# [2] = tested on: spontaneously hypertensive rats; experiment: mean arterial blood pressure in spontaneously hypertensive rats; assay type: in vivo, rat; settings: 50 mg/kg intraperitoneally
# Protocol: Further, spontaneously hypertensive rats were treated with a suspension or solution of N-(2-aminoethyl)-1-(3,5-difluorobenzyl)-2-mercaptoimidazole-5-carboxamid formate at a dose of 50 mg/kg intraperitoneally, and mean arterial blood pressure was monitored for 260 minutes using indwelling cannulae in the tail arteries.
smiles,measurement,setting,value
"O=C(O)c1ccc(CCC(Br)CBr)cn1 (stereo not drawn) [5-(3,4-dibromobutyl)picolinic acid]",DBH inhibition (in words),[1],DBH inhibitors
O=C(O)c1ccc(CCCCCl)cn1 [5-(4-chlorobutyl) picolinic acid],DBH inhibition (in words),[1],inhibit DBH
CN(C)C(=S)SCc1ccc(C(=O)O)nc1 [5-(dimethyldithiocarbamoylmethyl)picolinic acid],DBH inhibition (in words),[1],DBH inhibitors
"NOCc1ccccc1 [Benzyloxyamine, benzyloxyamine]",mode of DBH inhibition,[1],apparently act as competitive inhibitors
"CCCCc1ccc(C(N)=O)nc1 [Bupicomide, 5-(n-butyl)picolinamine]",DBH inhibition (in words),[1],DBH inhibitor
"NCCNC(=O)c1cnc(S)n1Cc1cc(F)cc(F)c1 [N-(2-Aminoethyl)-1-(3,5-difluorobenzyl)-2-mercaptoimidazole-5-carboxamide,formate]",blood pressure when monitoring was terminated,[2]; 260 minutes,blood pressure remained decreased when monitoring was terminated
same,mean arterial blood pressure reduction compared to vehicle-treated controls,"[2]; tail artery cannulae, monitored for 260 minutes",significant blood pressure reductions
same,time following treatment to significant blood pressure reductions,[2]; vs vehicle-treated controls,≤ 30 min
NNCc1ccccc1 [benzylhydrazine],mode of DBH inhibition,[1],apparently act as competitive inhibitors

# From patent US4837353A, “Dopamine-β-hydroxylase inhibitors” (SmithKline Beckman Corporation, priority 1988, dated 1989)
